In data set [1] the test system is Drinking In the Dark (DID) murine model of binge drinking. The experiment in a line: Drinking In the Dark (DID) murine model of binge drinking. It counts as in vivo, mice. Particulars: for binge ethanol consumption: figure legends FIG. 8C to 15C, dose not given. The method, then:
Using a standard Drinking In the Dark (DID) murine model of binge drinking, we tested the effect of 0, 25, 35, 50 and 100 mg/kg per os (p.o.) acetylated minocycline (derivative Y, or CMM1) vs control.

The next data set deals with E. coli. The experiment in a line: E. coli zone of inhibition (ZOI) and recovered colony forming units (CFU) per disk. Particulars: dose response. It counts as cell-based. As to the method:
Minocycline and two acetylated derivatives, CMM1 (B) and CMM2 (Y), were tested in a dose response manner for A) zone of inhibition (ZOI) and B) recovered colony forming units (CFU) per disk.

Data set [2] concerns DBA/2J mice, alcohol withdrawal symptoms. The experiment in a line: Alcohol withdrawal, Handling Induced Convulsion scores. It counts as in vivo. As to the method: Female and male DBA/2J mice were tested with CMM1, 100 mg/kg p.o., at 2 hrs following 4 g/kg 20% ethanol in saline. Shown are the Handling Induced Convulsion scores, background subtracted and summed over 24 hours. […] Mean±SEM, n=5/group.

Data set [3] relates to Large White x Landrace hybrid swine. The experiment in a line: Two-bucket choice water vs 5% ethanol in swine. Particulars: 10 mg/kg p.o., n=3/group.
For data set [4] the following is noted: cited from earlier work.
Another data set concerns AUD traits. Particulars: seven tetracyclines tested; earlier published work of the inventors; cited from earlier work.
Another data set relates to DID consumption. The experiment in a line: DID ethanol consumption after intracerebroventricular (ICV) dosing. It is filed as in vivo. Particulars: 3 ul of 9 mg/ml icv 20 hrs prior to DID testing; n=9-11; p<0.01. As to the method:
To test the hypothesis that tigecycline works at the level of the CNS, rather than the PNS, 3 ul of drug (9 mg/ml) was given icy 20 hrs prior to DID testing. n=9-11, mean±SEM, **p<0.01.

Another data set deals with DID ethanol consumption. The experiment in a line: Drinking In the Dark (DID) ethanol consumption after ten-day GI microbiome sterilization. It is filed as in vivo. Particulars: 100 mg/kg i.p.; ampicillin, neomycin, metronidazole, vancomycin pre-treatment vs none; n=7. The method, then:
A ten-day “sterilization” treatment with ampicillin, neomycin, metronidozale and vancomycin was used. Bedding was changed daily to avoid repopulation. DID was started on day 11 after one day of no metronidazole. Tigecycline was given at 100 mg/kg intraperitoneal (i.p.) n=7, mean±SEM.

Entries after “also recorded” stand apart in the source; their conditions may differ.

With `CCCCOc1ccc(N(C)C)c2c1C(=O)C1=C(O)C3(O)C(=O)C(C(N)=O)=C(O)C(N(C)C)C3CC1C2` (stereo not shown) [Butyl Ether Minocycline, 10-Butoxy-4,7-bis-dimethylamino-3,12,12a-trihydroxy-1,11-dioxo-1,4,4a,5,5a,6,11,12a-octahydro-naphthacene-2-carboxylic acid amide], in data set [1], the binge ethanol consumption result was “reduction of binge ethanol consumption”.

With `CC(=O)NC(=O)c1c(OC(C)=O)c2c(c(N(C)C)c1OC(C)=O)CC1Cc3c(N(C)C)ccc(OC(C)=O)c3C(=O)C1=C2OC(C)=O` (stereo not shown) [CMM1, Acetic acid 3,10,12-triacetoxy-2-acetylcarbamoyl-4,7-bis-dimethylamino-11-oxo-5,5a,6,11-tetrahydro-naphthacen-1-yl ester], in the data set on E. coli, the “antibiotic activity (ZOI and recovered CFU per disk)” value was “loss of antibiotic activity even at high doses”. Also, the “dose dependence of reduction of alcohol consumption” value in data set [1] (0, 25, 35, 50 and 100 mg/kg p.o.) was “dose-dependent response”. Besides, the “ethanol consumption (drinking)” value in data set [1] (0, 25, 35, 50 and 100 mg/kg p.o. vs control, n=4/group, p=0.004) was “significantly reduced drinking”. For the same compound, the water consumption entry in data set [1] (FIGS. 5A to 5D) is reported as “not water consumption”. In data set [2] (100 mg/kg p.o.), the “efficacy on withdrawal compared with parent drug minocycline” value is “more effective than the parent drug” and the “efficacy on withdrawal, females vs males” value was “more effective in females”. Besides, in data set [2] (100 mg/kg p.o. at 2 hrs following 4 g/kg 20% ethanol, female and male, n=5/group), the “alcohol withdrawal symptoms (Handling Induced Convulsion scores, background subtracted, summed over 24 hours)” value is listed as “reduced alcohol withdrawal symptoms”. In addition, the “onset, peak and duration of withdrawal symptoms” value in data set [2] (100 mg/kg p.o., n=5/group) was “reduced onset, peak and duration of withdrawal symptoms”. In data set [3], the alcohol preference result is “reduced” and the total ethanol consumption result is recorded as “reduced”.

Regarding `CC(=O)NC(=O)c1c(OC(C)=O)c2c(c(N(C)C)c1OC(C)=O)CC1Cc3c(N(C)C)ccc(OC(C)=O)c3C(=O)C1=C2O` (stereo not shown) [CMM2, Acetic acid 3,10-diacetoxy-2-acetylcarbamoyl-4,7-bis-dimethylamino-12-hydroxy-11-oxo-5,5a,6,11-tetrahydro-naphthacen-1-yl ester], the “antibiotic activity (ZOI and recovered CFU per disk)” value in the data set on E. coli is on record as “loss of antibiotic activity even at high doses”.

For `CC(=O)NC(=O)c1c(O)cc2c(c1O)C(O)=C1C(=O)c3c(OC(C)=O)ccc(N(C)C)c3CC1C2` (stereo not shown) [De Methyl Diacetate Minocycline, Acetic acid 9-acetylcarbamoyl-4-dimethylamino-8,10,11-trihydroxy-12-oxo-5,5a,6,12-tetrahydro-naphthacen-1-yl ester], the binge ethanol consumption entry in data set [1] is “reduction of binge ethanol consumption”.

As for `CN(C)[C@@H]1C(O)=C(C(N)=O)C(=O)[C@@]2(O)C(O)=C3C(=O)c4c(O)ccc(Cl)c4[C@@H](O)[C@H]3C[C@@H]12` [Demeclocycline], in data set [4], the LogD is given as −3.40 and the LogP was −1.07.

For `C[C@H]1c2cccc(O)c2C(=O)C2=C(O)[C@]3(O)C(=O)C(C(N)=O)=C(O)[C@@H](N(C)C)[C@@H]3[C@@H](O)[C@@H]21` [Doxycycline], in the data set on AUD traits, the “efficacy against AUD traits” value is recorded as “efficacious; also recorded: effective”. For the same compound, in data set [4], the LogD is on record as −3.29 and the log partition coefficient (LogP) is −0.54.

For `CCOc1ccc(N(C)C)c2c1C(=O)C1=C(O)C3(O)C(=O)C(C(N)=O)=C(O)C(N(C)C)C3CC1C2` (stereo not shown) [Ethyl Ether Minocycline, 4,7-Bis-dimethylamino-10-ethoxy-3,12,12a-trihydroxy-1,11-dioxo-1,4,4a,5,5a,6,11,12a-octahydro-naphthacene-2-carboxylic acid amide], the binge ethanol consumption entry in data set [1] is reported as “reduction of binge ethanol consumption”.

With `COc1ccc(N(C)C)c2c1C(=O)C1=C(O)C3(O)C(=O)C(C(N)=O)=C(O)C(N(C)C)C3CC1C2` (stereo not shown) [Methyl Ether Minocycline, 4,7-Bis-dimethylamino-3,12,12a-trihydroxy-10-methoxy-1,11-dioxo-1,4,4a,5,5a,6,11,12a-octahydro-naphthacene-2-carboxylic acid amide], the binge ethanol consumption result in data set [1] is listed as “reduction of binge ethanol consumption”.

In the case of `COc1ccc(N(C)C)c2c1C(=O)C1=C(O)c3c(O)c(C(=O)NC(C)=O)c(O)c(N(C)C)c3CC1C2` (stereo not shown) [Methyl Ether N-Monoacetate Minocycline, 4,7-Bis-dimethylamino-1,3,12-trihydroxy-10-methoxy-11-oxo-5,5a,6,11-tetrahydro-naphthacene-2-carboxylic acid acetyl-amide], in data set [1], the binge ethanol consumption entry was “reduction of binge ethanol consumption”.

Turning to `COc1ccc(N(C)C)c2c1C(=O)C1=C(O)c3c(c(N(C)C)c(OC(C)=O)c(C(=O)NC(C)=O)c3OC(C)=O)CC1C2` (stereo not shown) [Methyl Ether Tri Acetate Minocycline, Acetic acid 4-acetoxy-3-acetylcarbamoyl-1,10-bis-dimethylamino-5-hydroxy-7-methoxy-6-oxo-6,11,11a,12-tetrahydro-naphthacen-2-yl ester], the binge ethanol consumption entry in data set [1] is “reduction of binge ethanol consumption”.

With `CN(C)c1ccc(O)c2c1CC1CC3C(N(C)C)C(O)=C(C(N)=O)C(=O)C3(O)C(O)=C1C2=O` (stereo not shown) [Minocycline, 4,7-Bis-dimethylamino-3,10,12,12a-tetrahydroxy-1,11-dioxo-1,4,4a,5,5a,6,11,12a-octahydro-naphthacene-2-carboxylic acid amide], in the data set with E. coli, the “antibiotic activity (ZOI and recovered CFU per disk)” value is listed as “eliminated E. coli”. Besides, the “efficacy against AUD traits” value in the data set on AUD traits was “efficacious; also recorded: effective”.

For `CN(C)[C@@H]1C(=O)C(C(N)=O)=C(O)[C@@]2(O)C(=O)C3=C(O)c4c(O)cccc4[C@@](C)(O)[C@H]3[C@H](O)[C@@H]12` [Oxytetracycline], in data set [4], the LogD is on record as −4.25 and the LogP is −1.5.

On to `CC(=O)NC(=O)c1c(OC(C)=O)c2c(c(N(C)C)c1OC(C)=O)CC1Cc3c(N(C)C)ccc(OC(C)=O)c3C(=O)C1=C2OC(C)=O` (stereo not shown) [Penta Acetyl Minocycline, Acetic acid 3,10,12-triacetoxy-2-acetylcarbamoyl-4,7-bis-dimethylamino-11-oxo-5,5a,6,11-tetrahydro-naphthacen-1-yl ester], for which the binge ethanol consumption entry in data set [1] is “reduction of binge ethanol consumption”.

Take `CCCOc1ccc(N(C)C)c2c1C(=O)C1=C(O)C3(O)C(=O)C(C(N)=O)=C(O)C(N(C)C)C3CC1C2` (stereo not shown) [Propyl Ether Minocycline, 4,7-Bis-dimethylamino-3,12,12a-trihydroxy-1,11-dioxo-10-propoxy-1,4,4a,5,5a,6,11,12a-octahydro-naphthacene-2-carboxylic acid amide]: in data set [1], the binge ethanol consumption result is “reduction of binge ethanol consumption”.

On to `CC(=O)NC(=O)c1c(OC(C)=O)c2c(c(N(C)C)c1OC(C)=O)CC1Cc3c(N(C)C)ccc(OC(C)=O)c3C(=O)C1=C2O` (stereo not shown) [Tetra Acetyl Minocycline, Acetic acid 3,10-diacetoxy-2-acetylcarbamoyl-4,7-bis-dimethylamino-12-hydroxy-11-oxo-5,5a,6,11-tetrahydro-naphthacen-1-yl ester], for which the binge ethanol consumption entry in data set [1] was “reduction of binge ethanol consumption”.

Consider `CN(C)c1cc(NC(=O)CNC(C)(C)C)c(O)c2c1C[C@H]1C[C@H]3[C@H](N(C)C)C(O)=C(C(N)=O)C(=O)[C@@]3(O)C(O)=C1C2=O` [Tigecycline], for which the “efficacy against AUD traits” value in the data set with AUD traits was “efficacious; also recorded: effective”. In data set [4], the LogD was −2.73 and the LogP was −1.30. For the same compound, the DID ethanol consumption entry in the data set on DID consumption is “reduced DID consumption”. In addition, the “DID ethanol consumption / efficacy of tigecycline after gut sterilization” value in the data set with DID ethanol consumption is given as “No significant difference”.

These data come from patent US12202785B2 (Texas Tech University System, priority 2018, dated 2025).
